In ChEMBL document CHEMBL4177698, “Discovery and in vivo effects of novel human natriuretic peptide receptor A (NPR-A) agonists with improved activity for rat NPR-A” (Bioorg Med Chem, 2017):
Activity calls are given as the source filed them. The calls are words filed in the database; no cut-off is given here.

Legend:
[1] = target: T1, Atrial natriuretic peptide receptor 1 (Rattus norvegicus, UniProt P18910); assay: Agonist activity at rat NPR-A expressed in CHO cells assessed as increase in cGMP accumulation after 15 mins by fluorescent assay; type: cell-based
T1 sequence (P18910 whole entry): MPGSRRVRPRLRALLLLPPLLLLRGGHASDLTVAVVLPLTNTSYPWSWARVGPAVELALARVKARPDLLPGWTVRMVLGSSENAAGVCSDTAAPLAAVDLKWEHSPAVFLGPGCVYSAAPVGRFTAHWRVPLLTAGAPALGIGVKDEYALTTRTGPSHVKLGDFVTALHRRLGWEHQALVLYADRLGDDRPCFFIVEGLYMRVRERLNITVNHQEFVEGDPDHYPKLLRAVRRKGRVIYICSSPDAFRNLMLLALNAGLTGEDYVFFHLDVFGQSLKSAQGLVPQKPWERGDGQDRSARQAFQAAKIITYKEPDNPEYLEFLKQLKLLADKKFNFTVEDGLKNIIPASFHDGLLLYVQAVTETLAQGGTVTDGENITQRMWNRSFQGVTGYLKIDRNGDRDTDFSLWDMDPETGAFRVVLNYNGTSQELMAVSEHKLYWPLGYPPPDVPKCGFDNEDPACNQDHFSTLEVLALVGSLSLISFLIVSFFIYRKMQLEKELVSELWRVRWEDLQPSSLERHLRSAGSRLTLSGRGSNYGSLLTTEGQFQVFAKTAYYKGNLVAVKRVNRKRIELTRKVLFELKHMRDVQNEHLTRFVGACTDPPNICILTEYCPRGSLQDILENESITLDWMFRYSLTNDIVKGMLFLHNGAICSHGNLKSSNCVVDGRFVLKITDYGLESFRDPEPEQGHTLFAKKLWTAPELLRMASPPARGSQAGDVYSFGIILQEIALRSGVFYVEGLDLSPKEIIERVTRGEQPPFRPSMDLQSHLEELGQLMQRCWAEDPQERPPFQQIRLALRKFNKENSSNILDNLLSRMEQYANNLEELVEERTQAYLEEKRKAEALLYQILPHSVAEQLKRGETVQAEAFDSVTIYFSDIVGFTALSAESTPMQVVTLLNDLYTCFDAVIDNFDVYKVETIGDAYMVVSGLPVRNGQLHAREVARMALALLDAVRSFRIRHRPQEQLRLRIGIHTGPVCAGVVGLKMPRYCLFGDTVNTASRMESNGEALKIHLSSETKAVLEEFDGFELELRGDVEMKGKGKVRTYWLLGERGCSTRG

[2] = target: T2, Atrial natriuretic peptide receptor 1 (Homo sapiens, UniProt P16066); assay: Agonist activity at human NPR-A expressed in CHO cells assessed as increase in cGMP accumulation after 30 mins by radioimmunoassay; type: cell-based
T2 sequence (P16066 whole entry): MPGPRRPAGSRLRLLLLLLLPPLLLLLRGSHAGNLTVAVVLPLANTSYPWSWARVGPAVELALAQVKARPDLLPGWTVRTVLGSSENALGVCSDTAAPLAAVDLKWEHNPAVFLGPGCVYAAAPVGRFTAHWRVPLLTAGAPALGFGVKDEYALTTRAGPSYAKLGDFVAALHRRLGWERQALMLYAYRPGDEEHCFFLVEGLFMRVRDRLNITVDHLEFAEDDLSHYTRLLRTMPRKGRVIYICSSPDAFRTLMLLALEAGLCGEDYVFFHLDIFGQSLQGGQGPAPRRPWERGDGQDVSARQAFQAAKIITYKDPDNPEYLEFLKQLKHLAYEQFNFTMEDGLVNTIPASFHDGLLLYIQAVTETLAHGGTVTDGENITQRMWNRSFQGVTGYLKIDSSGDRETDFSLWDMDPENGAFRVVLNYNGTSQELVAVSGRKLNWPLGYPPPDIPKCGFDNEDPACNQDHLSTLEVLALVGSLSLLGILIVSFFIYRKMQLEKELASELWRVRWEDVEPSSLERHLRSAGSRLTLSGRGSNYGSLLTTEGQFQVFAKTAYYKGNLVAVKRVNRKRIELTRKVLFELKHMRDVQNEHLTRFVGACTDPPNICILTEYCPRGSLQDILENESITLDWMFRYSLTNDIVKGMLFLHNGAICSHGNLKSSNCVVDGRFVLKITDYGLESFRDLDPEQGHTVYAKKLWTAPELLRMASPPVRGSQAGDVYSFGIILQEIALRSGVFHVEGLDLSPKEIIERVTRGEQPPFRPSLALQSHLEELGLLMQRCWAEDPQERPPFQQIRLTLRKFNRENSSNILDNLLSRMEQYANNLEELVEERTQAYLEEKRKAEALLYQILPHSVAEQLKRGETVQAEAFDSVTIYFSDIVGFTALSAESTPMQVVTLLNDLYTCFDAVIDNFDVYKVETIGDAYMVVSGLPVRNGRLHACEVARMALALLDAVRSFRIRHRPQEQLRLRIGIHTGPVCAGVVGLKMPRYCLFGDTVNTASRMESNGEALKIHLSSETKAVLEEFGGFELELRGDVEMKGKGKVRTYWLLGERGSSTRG

[3] = system: Rattus norvegicus; assay: In vivo agonist activity at NPR-A in Crl:CD(SD) rat assessed as increase in cGMP accumulation in plasma at 1 mg/kg/min, iv administered via infusion for 15 mins measured after 30 mins by radioimmunoassay; type: functional, organism-based
[4] = system: Rattus norvegicus; assay: Diuretic activity in Crl:CD(SD) rat assessed as increase in urine volume at 1 mg/kg/min, iv administered as infusion over 30 mins measured after 40 mins post dose; type: functional, organism-based
[5] = system: Rattus norvegicus; assay: In vivo agonist activity at NPR-A in Crl:CD(SD) rat assessed as increase in cGMP accumulation in lungs at 1 mg/kg/min; type: functional, organism-based
[6] = system: Rattus norvegicus; assay: In vivo agonist activity at NPR-A in Crl:CD(SD) rat assessed as increase in cGMP accumulation in heart at 1 mg/kg/min; type: functional, organism-based
[7] = system: Rattus norvegicus; assay: Diuretic activity in Crl:CD(SD) rat assessed as increase in urine volume at 1 mg/kg/min, iv administered as infusion over 30 mins measured after 20 mins post dose; type: functional, organism-based

SMILES | EC50 [1] [nM] | EC50 [2] [nM] | other results
COC[C@@H](C)Nc1nc(N[C@H]2CC[C@@H](NC(=O)NC3CC3)CC2)c2cc(-c3cccc(F)c3)ccc2n1 | 270 | 340 | –
CC(C)NC(=O)N[C@H]1CC[C@H](Nc2nc(N[C@H](C)CO)nc3ccc(-c4cccc(F)c4)cc23)CC1 | 530 | 460 | –
C[C@H](CO)Nc1nc(N[C@H]2CC[C@@H](NC(=O)NC3CC3)CC2)c2cc(-c3cccc(F)c3)ccc2n1 | 180 | 330 | –
CC(C)NC(=O)N[C@H]1CC[C@@H](Nc2nc(N[C@H](C)CO)nc3ccc(-c4cccc(F)c4)cc23)CC1 | 74 | 320 | –
COC[C@@H](C)Nc1nc(N[C@H]2CC[C@@H](NC(=O)NC(C)C)CC2)c2cc(-c3cccc(F)c3)ccc2n1 | 160 | 200 | –
CC(C)NC(=O)N[C@H]1CC[C@@H](Nc2nc(NC(C)C)nc3ccc(-c4cccc(F)c4)cc23)CC1 | 420 | 1500 | –
COC[C@H](C)Nc1nc(N[C@H]2CC[C@@H](NC(=O)NC3CC3)CC2)c2cc(-c3cccc(F)c3)ccc2n1 | 1800 | 850 | –
C[C@H](CO)Nc1nc(N[C@H]2CC[C@H](NC(=O)[C@H]3C[C@H](O)C3)CC2)c2cc(-c3cccc(F)c3)ccc2n1 | 700 | 470 | –
CC(C)N[C@H]1C[C@H](C(=O)N[C@H]2CC[C@H](Nc3nc(N[C@H](C)CO)nc4ccc(-c5ccccc5)cc34)CC2)C1 | 2000 | 320 | –
CC(C)[C@@H](CO)NC(=O)N[C@H]1CC[C@@H](Nc2nc(N[C@H](C)CO)nc3ccc(-c4cccc(F)c4)cc23)CC1 | 330 | 41 | –
CC(C)[C@H](CO)NC(=O)N[C@H]1CC[C@@H](Nc2nc(N[C@H](C)CO)nc3ccc(-c4cccc(F)c4)cc23)CC1 | 65 | 71 | Activity [3]: Active
CC(C)Nc1nc(N[C@H]2CC[C@@H](NC(=O)N[C@@H](CO)C(C)C)CC2)c2cc(-c3cccc(F)c3)ccc2n1 | 290 | 1000 | –
CC(C)NC(=O)N[C@H]1CC[C@@H](Nc2nc(N(C)CCO)nc3ccc(-c4cccc(F)c4)cc23)CC1 | 2100 | 720 | –
COCCNc1nc(N[C@H]2CC[C@@H](NC(=O)NC(C)C)CC2)c2cc(-c3cccc(F)c3)ccc2n1 | 610 | 380 | –
COC[C@@H](C)Nc1nc(N[C@H]2CC[C@@H](NC(=O)NC(C)C)CC2)c2nc(-c3cccc(F)c3)ccc2n1 | 1600 | 4000 | –
C[C@H](CO)Nc1nc(N[C@H]2CC[C@@H](NC(=O)NC(C)(C)CO)CC2)c2cc(-c3cccc(F)c3)ccc2n1 | 66 | 220 | Activity [3]: Active
C[C@H](CO)Nc1nc(N[C@H]2CC[C@H](NC(=O)[C@H]3C[C@H](O)C3)CC2)c2cc(-c3ccccc3)ccc2n1 | 1800 | 900 | –
C[C@H](CO)Nc1nc(N[C@H]2CC[C@H](NC(=O)N3CC(O)C3)CC2)c2cc(-c3cccc(F)c3)ccc2n1 | 900 | 420 | –
C[C@H](CO)Nc1nc(N[C@H]2CC[C@@H](NC(=O)NC3(CO)CCCC3)CC2)c2cc(-c3cccc(F)c3)ccc2n1 | 120 | 78 | –
CC(C)Nc1nc(N[C@H]2CC[C@@H](NC(=O)N(C)C(C)C)CC2)c2cc(-c3cccc(F)c3)ccc2n1 | 3000 | 4000 | –
CC(C)[C@H](CO)NC(=O)N[C@H]1CC[C@@H](Nc2nc(N[C@H](C)CO)nc3ncc(-c4cccc(F)c4)cc23)CC1 | 62 | 110 | Activity [4]: Active; Activity [5]: Active; Activity [3]: Active; Activity [6]: Active; Activity [7]: Active
C[C@H](CO)Nc1nc(N[C@H]2CC[C@@H](NC(=O)NC3CCCN(C)C3)CC2)c2cc(-c3cccc(F)c3)ccc2n1 (stereo partly specified) | 3200 | 780 | –
CC(C)[C@H](CO)NC(=O)N[C@H]1CC[C@@H](Nc2nc(N[C@H](C)CO)nc3cnc(-c4cccc(F)c4)cc23)CC1 | 130 | 620 | –
CC(C)Nc1nc(N[C@H]2CC[C@@H](NC(=O)N[C@@H](CO)C(C)C)CC2)c2cc(-c3cccc(F)c3)cnc2n1 | 43 | 98 | Activity [3]: Active
